Results on eight molecules are retold here after patent US9663479B2, “γ-aminobutyric acid (GABA) analogues for the treatment of pain and other disorders” (Novassay S.A., priority 2013, dated 2017).

Broadly, the pIC50 is the negative decadic logarithm of the IC50, by convention in mol/L. A word on the IC50: it is the concentration that gives 50% inhibition.

pIC50: −log10 of the molar value. A value given as a limit tells only on which side of the number the result lay.

The target of one assay is Human Cav1.2/β3/α2δ-1 Calcium Channel Membranes (α2δ-1 subunit) (Homo sapiens (Human), UniProt P54289). Briefly: [3H]gabapentin scintillation proximity binding assay on calcium channel α2δ-1 subunit membranes.
Human Cav1.2/β3/α2δ-1 Calcium Channel Membranes (α2δ-1 subunit), sequence (P54289 25-956): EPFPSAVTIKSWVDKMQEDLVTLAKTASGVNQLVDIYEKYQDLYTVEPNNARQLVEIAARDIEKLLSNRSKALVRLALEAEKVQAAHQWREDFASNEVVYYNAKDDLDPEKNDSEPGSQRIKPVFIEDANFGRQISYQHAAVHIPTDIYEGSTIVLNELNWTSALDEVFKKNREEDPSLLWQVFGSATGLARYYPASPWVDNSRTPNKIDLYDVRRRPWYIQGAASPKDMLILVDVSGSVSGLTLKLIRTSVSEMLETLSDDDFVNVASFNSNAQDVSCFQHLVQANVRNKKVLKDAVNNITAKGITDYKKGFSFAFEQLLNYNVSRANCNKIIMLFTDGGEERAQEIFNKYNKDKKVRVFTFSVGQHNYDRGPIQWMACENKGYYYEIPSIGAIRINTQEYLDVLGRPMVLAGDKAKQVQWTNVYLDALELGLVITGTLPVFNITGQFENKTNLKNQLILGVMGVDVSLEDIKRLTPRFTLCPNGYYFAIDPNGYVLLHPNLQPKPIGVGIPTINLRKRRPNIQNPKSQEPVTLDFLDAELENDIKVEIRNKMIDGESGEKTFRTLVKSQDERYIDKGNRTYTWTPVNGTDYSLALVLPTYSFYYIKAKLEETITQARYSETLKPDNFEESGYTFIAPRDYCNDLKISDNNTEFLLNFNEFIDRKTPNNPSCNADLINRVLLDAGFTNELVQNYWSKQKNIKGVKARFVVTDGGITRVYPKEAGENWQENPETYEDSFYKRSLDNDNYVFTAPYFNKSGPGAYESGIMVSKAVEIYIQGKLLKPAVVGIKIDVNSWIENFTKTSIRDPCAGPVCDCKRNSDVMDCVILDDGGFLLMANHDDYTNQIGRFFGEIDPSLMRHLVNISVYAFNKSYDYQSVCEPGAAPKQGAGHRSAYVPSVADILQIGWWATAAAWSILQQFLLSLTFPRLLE
Human Cav1.2/β3/α2δ-1 Calcium Channel Membranes (α2δ-1 subunit), sequence (P54289 957-1103): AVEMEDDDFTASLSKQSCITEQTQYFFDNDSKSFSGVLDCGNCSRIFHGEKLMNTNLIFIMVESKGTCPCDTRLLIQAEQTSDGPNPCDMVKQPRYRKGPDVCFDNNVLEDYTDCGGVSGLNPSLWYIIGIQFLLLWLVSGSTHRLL
Human Cav1.2/β3/α2δ-1 Calcium Channel Membranes (α2δ-1 subunit), sequence (Q13936 whole entry partner): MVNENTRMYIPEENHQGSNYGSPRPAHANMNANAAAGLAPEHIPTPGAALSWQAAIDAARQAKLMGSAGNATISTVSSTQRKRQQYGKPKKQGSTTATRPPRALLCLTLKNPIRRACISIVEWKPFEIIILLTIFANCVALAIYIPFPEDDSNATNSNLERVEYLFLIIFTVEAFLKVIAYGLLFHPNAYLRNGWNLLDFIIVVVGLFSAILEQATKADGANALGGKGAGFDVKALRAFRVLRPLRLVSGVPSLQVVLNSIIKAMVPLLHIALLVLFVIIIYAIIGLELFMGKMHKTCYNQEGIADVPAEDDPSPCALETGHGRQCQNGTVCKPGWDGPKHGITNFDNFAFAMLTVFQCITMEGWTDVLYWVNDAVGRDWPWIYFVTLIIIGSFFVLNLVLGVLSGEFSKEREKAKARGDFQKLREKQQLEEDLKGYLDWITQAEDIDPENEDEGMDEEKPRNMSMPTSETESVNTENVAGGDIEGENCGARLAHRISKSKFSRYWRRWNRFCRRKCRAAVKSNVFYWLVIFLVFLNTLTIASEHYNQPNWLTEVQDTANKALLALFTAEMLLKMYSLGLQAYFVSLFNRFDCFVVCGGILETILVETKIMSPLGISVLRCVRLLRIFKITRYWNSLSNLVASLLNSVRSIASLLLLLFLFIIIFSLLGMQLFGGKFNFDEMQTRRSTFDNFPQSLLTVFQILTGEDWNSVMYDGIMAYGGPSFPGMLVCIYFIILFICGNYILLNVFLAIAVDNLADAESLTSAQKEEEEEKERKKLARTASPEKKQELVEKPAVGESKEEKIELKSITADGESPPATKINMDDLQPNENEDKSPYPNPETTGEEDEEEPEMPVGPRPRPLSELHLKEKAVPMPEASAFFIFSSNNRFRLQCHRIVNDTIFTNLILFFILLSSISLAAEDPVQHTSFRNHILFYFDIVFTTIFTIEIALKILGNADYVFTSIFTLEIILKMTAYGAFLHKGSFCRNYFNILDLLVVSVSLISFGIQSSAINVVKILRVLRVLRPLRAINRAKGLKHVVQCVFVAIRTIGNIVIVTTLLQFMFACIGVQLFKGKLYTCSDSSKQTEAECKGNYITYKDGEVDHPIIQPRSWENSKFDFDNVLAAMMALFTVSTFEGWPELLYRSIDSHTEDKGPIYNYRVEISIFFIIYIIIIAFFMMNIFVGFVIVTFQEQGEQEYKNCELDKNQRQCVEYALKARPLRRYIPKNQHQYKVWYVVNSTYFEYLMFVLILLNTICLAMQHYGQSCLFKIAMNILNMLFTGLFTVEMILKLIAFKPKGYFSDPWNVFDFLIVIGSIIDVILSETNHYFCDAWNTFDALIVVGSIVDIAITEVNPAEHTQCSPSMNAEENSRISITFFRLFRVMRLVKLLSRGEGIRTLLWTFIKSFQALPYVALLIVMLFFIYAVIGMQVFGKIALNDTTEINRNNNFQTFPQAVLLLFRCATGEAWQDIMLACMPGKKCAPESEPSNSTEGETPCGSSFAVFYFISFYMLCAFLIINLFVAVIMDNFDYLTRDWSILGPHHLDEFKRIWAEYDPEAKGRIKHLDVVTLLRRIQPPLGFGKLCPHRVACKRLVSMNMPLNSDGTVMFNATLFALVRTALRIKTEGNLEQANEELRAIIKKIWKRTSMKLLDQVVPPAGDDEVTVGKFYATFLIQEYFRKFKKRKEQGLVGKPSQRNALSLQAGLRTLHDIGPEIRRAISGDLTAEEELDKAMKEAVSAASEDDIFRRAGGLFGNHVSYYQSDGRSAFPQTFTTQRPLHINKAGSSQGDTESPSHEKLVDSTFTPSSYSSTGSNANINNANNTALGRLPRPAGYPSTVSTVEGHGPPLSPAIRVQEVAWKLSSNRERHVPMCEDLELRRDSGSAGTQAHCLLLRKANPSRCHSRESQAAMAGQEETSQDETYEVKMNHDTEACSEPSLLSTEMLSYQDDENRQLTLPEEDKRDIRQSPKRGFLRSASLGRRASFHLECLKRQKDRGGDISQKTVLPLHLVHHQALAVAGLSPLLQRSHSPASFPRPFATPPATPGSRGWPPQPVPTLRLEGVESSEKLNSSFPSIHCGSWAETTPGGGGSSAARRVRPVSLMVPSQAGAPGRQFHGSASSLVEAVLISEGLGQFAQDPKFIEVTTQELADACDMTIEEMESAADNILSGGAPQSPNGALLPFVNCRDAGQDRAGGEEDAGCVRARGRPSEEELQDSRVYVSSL
Human Cav1.2/β3/α2δ-1 Calcium Channel Membranes (α2δ-1 subunit), sequence (P54284 whole entry partner): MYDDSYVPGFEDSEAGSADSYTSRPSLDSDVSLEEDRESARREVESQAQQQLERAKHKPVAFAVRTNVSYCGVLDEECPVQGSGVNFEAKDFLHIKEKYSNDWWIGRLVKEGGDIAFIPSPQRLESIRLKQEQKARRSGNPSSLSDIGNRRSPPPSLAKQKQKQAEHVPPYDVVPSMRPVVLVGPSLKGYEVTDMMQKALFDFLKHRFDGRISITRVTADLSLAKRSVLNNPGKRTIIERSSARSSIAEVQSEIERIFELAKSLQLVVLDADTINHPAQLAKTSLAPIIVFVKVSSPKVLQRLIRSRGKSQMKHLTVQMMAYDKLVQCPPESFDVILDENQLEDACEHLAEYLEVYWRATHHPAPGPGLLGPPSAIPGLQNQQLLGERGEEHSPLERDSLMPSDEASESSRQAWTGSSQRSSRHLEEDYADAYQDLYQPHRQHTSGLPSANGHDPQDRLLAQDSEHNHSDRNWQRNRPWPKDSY
Details: not given
How it is done: This test was carried out in the following way.
Calcium Channel α2δ-1 Subunit Binding Assay
Human Cav1.2/β3/α2δ-1 Calcium Channel Membranes (Chantest) were thawed on ice, aliquotted and stored at −80° C. for subsequent use. Membranes were diluted to 200 μg/ml (3 μg/well final assay concentration (FAC)) in assay buffer (10 mM HEPES (Sigma), (pH7.4)). The [^3H]GBP (Perkin Elmer) stock solution was stored at −20° C. [^3H]GBP was diluted to 40 nM (10 nM FAC) in assay buffer. SPA beads (Perkin Elmer) were re-suspended at 100 mg/ml in 10 mM HEPES (pH 7.4). Beads were diluted to 40 mg/ml (0.6 mg/well FAC) in assay buffer. Nonspecific binding (NSB) was generated using an excess of pregabalin (Tocris). Pregabalin was solubilized in Milli-Q H2O at 10 mM. 10 mM pregabalin was diluted to 400 μM (100 μM FAC) in assay buffer.
Compounds were diluted to […] then half log diluted. These were then diluted 1:100 in assay buffer to a 4× assay concentration (1 μM FAC top dilution).
SPA beads 15 μl; membranes 15 μl; pregabalin or assay buffer/test compound 15 μl and [^3H]GBP 15 μl were added to a white 96 well isoplate, (Perkin Elmer). The assay plate was sealed and mixed for 10 s on a plate shaker then placed into a plate rack and slotted into the reader stacker.
The NSB values obtained by adding 100 μM pregabalin were subtracted from values obtained for compounds to generate a specific binding value. Specific binding in counts per minute (cpm) were plotted against compound concentration (M) and fitted using a 4 parameter logistic equation.
For orientation: Scintillation proximity formats need no separation of bound from free tracer.
As to `CCNC[C@]1(Cc2nnn[nH]2)C[C@H]2CC(CC)=C[C@H]21` (racemic) [Formula 1 (Racemic), Racemic N-(((1R,5S,6S)-6-((1H-tetrazol-5-yl)methyl)-3-ethylbicyclo[3.2.0]hept-3-en-6-yl)methyl)ethanamine], the negative-log IC50 (pIC50) is no more than 6.30. On to `CCC1=CC2C(C1)C[C@@]2(CN)Cc1nn[nH]n1` (single isomer, unassigned) [Formula 2 peak 1 (Chiral)], for which the pIC50 is 6.78.

With `CCC1=CC2C(C1)C[C@]2(CN)Cc1nn[nH]n1` (single isomer, unassigned) [Formula 2 peak 2 (chiral)], the pIC50 is 8.68.

With `CC(C)CC(CN)CC(=O)O` (stereo not drawn) [Pregabalin, reference compound], the pIC50 is 7.64. As for `CCC1=C[C@@H]2[C@H](C1)C[C@]2(CN)Cc1nn[nH]n1` (racemic) [Formula 2 (Racemic), Racemic ((1R,5S,6S)-6-((1H-tetrazol-5-yl)methyl)-3-ethylbicyclo[3.2.0]hept-3-en-6-yl)methanamine], the pIC50 was 8.38.

As to `CCC1=C[C@@H]2[C@H](C1)C[C@]2(CN)Cc1nc(=O)o[nH]1` (racemic) [Formula 3 (Racemic), Racemic 3-(((1R,5S,6S)-6-(aminomethyl)-3-ethylbicyclo[3.2.0]hept-3-en-6-yl)methyl)-1,2,4-oxadiazol-5(4H)-one], the negative-log IC50 (pIC50) is 7.72.

The test system of another assay is human recombinant CACNA2D1 (Voltage-Gated Calcium Channel subunit α2δ-1 fragment). Briefly: Biacore surface plasmon resonance kinetic binding analysis on immobilised CACNA2D1. The settings on record: SPR, CM5 chip, BSA reference subtracted. The source says: Method for determining kinetic binding parameters (association and dissociation rates) and affinities (KD) of GABA analogues to α2δ-1subunits.
It is well known in the art that binding affinity can be expressed as KD or equilibrium dissociation constant, whereby increasing binding affinity correlates with decreasing KD, which can be calculated from kinetic binding constants. Kinetic binding analysis of GABA analogues to α2δ-1subunits can be determined by surface plasmon resonance technology applied in Biacore™ SPR instruments (Biacore, GE Healthcare, Uppsala). Kinetic association rates (ka; k-on) and dissociation rates (kd; k-off) are obtained. Equilibrium dissociation constant (KD; affinity) values are calculated as k-off/k-on.
This example discloses that the GABA analogues ((1R,5S,6S)-6-((1H-tetrazol-5-yl)methyl)-3-ethylbicyclo[3.2.0]hept-3-en-6-yl)methanamine (“Test Compound”: prepared as described in Example 2) and (1R,5S,6S)-6-(aminomethyl)-3-ethylbicyclo[3.2.0]hept-3-en-6-yl]acetic acid (“Reference Compound”: prepared as described in WO 2010/079668 and US 2012/0071685A1) are capable of binding to a recombinant fragment of human Voltage-Gated Calcium Channel subunit (α2δ-1, CACNA2D1). […]
(In SPR one partner is held on a chip, and binding of the other changes the refractive index at the surface.)
`CCC1=C[C@@H]2[C@H](C1)C[C@]2(CN)CC(=O)O` [Reference Compound, reference compound]: the “Specific binding to human CACNA2D1 recombinant protein” value is “able to specifically bind”. The same measure, in the same setting: the result for `CCC1=C[C@@H]2[C@H](C1)C[C@]2(CN)Cc1nnn[nH]1` [Test Compound, ((1R,5S,6S)-6-((1H-tetrazol-5-yl)methyl)-3-ethylbicyclo[3.2.0]hept-3-en-6-yl)methanamine] reads “able to specifically bind”.

The next assay deals with α2δ-1 sub-unit (Homo sapiens (Human), UniProt P54289).
α2δ-1 sub-unit, sequence (P54289 whole entry, looked up): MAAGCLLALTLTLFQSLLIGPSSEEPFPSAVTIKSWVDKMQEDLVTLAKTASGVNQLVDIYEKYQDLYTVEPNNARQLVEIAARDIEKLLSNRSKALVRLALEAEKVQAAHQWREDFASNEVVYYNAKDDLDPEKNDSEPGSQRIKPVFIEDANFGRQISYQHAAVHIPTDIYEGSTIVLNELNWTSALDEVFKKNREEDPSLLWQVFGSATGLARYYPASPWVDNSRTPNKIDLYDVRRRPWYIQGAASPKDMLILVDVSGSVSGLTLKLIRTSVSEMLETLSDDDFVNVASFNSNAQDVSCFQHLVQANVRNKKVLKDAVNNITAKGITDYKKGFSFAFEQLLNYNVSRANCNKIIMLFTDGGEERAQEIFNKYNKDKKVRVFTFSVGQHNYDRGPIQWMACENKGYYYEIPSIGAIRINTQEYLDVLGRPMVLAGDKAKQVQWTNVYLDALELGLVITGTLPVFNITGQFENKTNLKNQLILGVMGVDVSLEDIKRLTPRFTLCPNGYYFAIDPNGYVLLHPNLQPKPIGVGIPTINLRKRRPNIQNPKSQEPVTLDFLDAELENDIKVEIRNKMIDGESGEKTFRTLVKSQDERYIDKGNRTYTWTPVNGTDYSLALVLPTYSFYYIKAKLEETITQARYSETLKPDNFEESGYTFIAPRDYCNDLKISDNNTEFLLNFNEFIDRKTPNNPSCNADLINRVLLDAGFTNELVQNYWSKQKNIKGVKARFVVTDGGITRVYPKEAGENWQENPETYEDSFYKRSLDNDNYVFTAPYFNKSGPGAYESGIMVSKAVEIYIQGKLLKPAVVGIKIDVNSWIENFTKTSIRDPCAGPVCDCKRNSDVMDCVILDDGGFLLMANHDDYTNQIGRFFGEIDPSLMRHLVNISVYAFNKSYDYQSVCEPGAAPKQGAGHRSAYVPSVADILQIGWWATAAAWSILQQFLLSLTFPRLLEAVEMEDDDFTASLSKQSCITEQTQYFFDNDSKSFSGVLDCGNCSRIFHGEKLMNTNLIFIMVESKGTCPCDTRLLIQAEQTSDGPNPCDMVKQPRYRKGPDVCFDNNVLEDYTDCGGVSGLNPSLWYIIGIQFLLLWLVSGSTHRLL
Test: not given
The settings on record: read-out: Literature IC50 nM; binding to α2δ-1 sub-unit, literature value; cited from earlier work.
With `CC(C)CC(CN)CC(=O)O` (stereo not drawn) [Pregabalin, reference compound], the half-inhibitory concentration (IC50) is 80 nM.
